pIC50: −log10 of the molar value. Read-outs that look alike come from different tables or passages of the source. Each block holds one compound with its values, some of them ahead of it.
How the values were obtained:
Type in all cases: cell-based
[1] = tested on: LoVo colon cancer cell with KRAS G13D mutation; assay: Proliferation inhibition on RAS cell lines measured by CTG, LoVo; settings: Homo sapiens, LoVo, 144 h, Table 1; LoVo cells, incubated for 6 days, CellTiter Glo; read-out: IC50 (LoVo^g)
Source text: (§1) NCI-H358 is a human non-small cell lung cancer cell line with KRAS G12C mutation; AGS is a gastric cancer cell line with KRAS G12D mutation; SW620 is a colon cancer cell with KRAS G12V mutation; NCI-H460 is a non-small cell lung cancer cell with KRAS Q61H mutation; MKN1 is a wild-type gastric cancer cell with KRAS-amplified; LS513 is a colon cancer cell with KRAS G12D mutation; LoVo is a colon cancer cell with KRAS G13D mutation; NCI-H441 is a lung cancer cell with KRAS G12V mutation, and Capan-2 is a pancreatic cancer cell with KRAS G12V mutation.
(§2) The proliferation inhibitory effect of the compounds on various mutations was evaluated by determining the proliferation inhibitory activity of the compounds on these cell lines.
(§3) The assay was conducted on either 384-well plates or 96-well plates. The procedures are as follows:
(§4) The cell suspensions were added to 384- or 96-well plates (384-well plate: 50 μL; 96-well plate: 100 μL) except for peripheral wells. The plates were placed in a carbon dioxide incubator overnight. NCI-H358, AGS, NCI-H460, MKN-1, LS513, LoVo, and NCI-H441 were placed in a 5%, 370 carbon dioxide incubator overnight, and SW620 was placed in a 0%, 370 carbon dioxide incubator overnight. The HPD300 micro-dosing instrument was used to add the corresponding concentration of compound to each well (9-10 concentration gradients of compound were obtained by 3-fold dilution). Cell plates were incubated in a carbon dioxide incubator for 5-6 days. NCI-H358, AGS, NCI-H460 and MKN-1 were incubated at 5%, 37° incubator and SW620 was incubated at 0%, 370 incubator. On the day of plate measurement, the 384- or 96-well plates were first equilibrated at room temperature for 10-30 min, then CellTiter Glo reagent (384-well plate: 25 μL; 96-well plate: 100 μL) was added to the 384- or 96-well plate, shaken for 10 min away from light, and incubated for 10 min. The plates were placed into Victor NIVO or ENVIDION reader plates, and XLFit was utilized to plot the pharmacodynamic inhibition curve and calculate the IC50 value. “IC50>10 μM” is denoted by “*”, “10 μM≥IC50≥1 μM” is denoted by “**”, and “1 μM≥IC50>100 nM” is denoted by “***”, “IC50<100 nM” is denoted by “****”

[2] = tested on: LS513 colon cancer cell with KRAS G12D mutation; assay: Proliferation inhibition on RAS cell lines measured by CTG, LS513; settings: LS513 cells, incubated for 6 days, CellTiter Glo
Source text: as §1, §2, §3, §4

[3] = tested on: NCI-H441 lung cancer cell with KRAS G12V mutation; assay: Proliferation inhibition on RAS cell lines measured by CTG, NCI-H441; settings: Homo sapiens, NCI-H441 cells, incubated for 6 days, CellTiter Glo
Source text: as §1, §2, §3, §4

[4] = tested on: Capan-2 pancreatic cancer cell with KRAS G12V mutation; assay: Proliferation inhibition on RAS cell lines measured by CTG, Capan-2; settings: Homo sapiens, 144 h; Table 2; Capan-2 cells, incubated for 6 days, CellTiter Glo; read-out: IC50 (Capan-2^i)
Source text: as §1, §2, §3, §4

[5] = tested on: SW620 colon cancer cell with KRAS G12V mutation; assay: Proliferation inhibition on RAS cell lines measured by CTG, SW620; settings: Homo sapiens, SW-620, 144 h; Table 2; SW620 cells, incubated for 6 days, CellTiter Glo; read-out: IC50 (SW620^c)
Source text: as §1, §2, §3, §4

GP2D cells = assay: Proliferation inhibition on RAS cell lines measured by CTG, GP2D; settings: Table 3, incubated for 6 days, CellTiter Glo, read-out: IC50 (GP2D^l)
Experimental: as §2, §3, §4

[6] = Homo sapiens, LS-513, 144 h, Table 2, read-out: IC50 (LS513^f)
[7] = Table 3, read-out: IC50 (LS513^k)
[8] = Homo sapiens, LS-513, 144 h, Table 3, read-out: IC50 (LS513^k)

Compound: C#Cc1c(F)ccc2cc(O)cc(-c3ncc4c(N5CCCCCO5)nc(OC[C@@]56CCCN5C[C@H](F)C6)nc4c3F)c12 [Compound 9]
pIC50 [1]: > 7.00 | pIC50 ([2]; Homo sapiens, LS-513, 144 h, Table 1, read-out: IC50 (LS513^f)): > 7.00 | pIC50 ([3]; NCI-H441, 144 h, Table 1): > 7.00

Compound: C#Cc1c(F)ccc2cc(O)cc(-c3ncc4c(N5CCCCCCN5)nc(OC[C@@]56CCCN5C[C@H](F)C6)nc4c3F)c12 [Compound 15]
pIC50 [2, 6]: 6.00 to 7.00 | pIC50 ([3]; NCI-H441, 144 h, Table 2): 6.00 to 7.00

Compound: C#Cc1c(F)ccc2cc(O)cc(-c3ncc4c(N5CCCCN5C(=O)OC(C)(C)C)nc(OC[C@@]56CCCN5C[C@H](F)C6)nc4c3F)c12 [Compound 17]
pIC50 [2, 6]: > 7.00 | pIC50 ([3]; NCI-H441, 144 h, Table 2): 6.00 to 7.00

Compound: C#Cc1c(F)ccc2cc(O)cc(-c3ncc4c(N5CCCN5)nc(OC[C@@]56CCCN5C[C@H](F)C6)nc4c3F)c12 [Compound 18]
pIC50 [2, 6]: 5.00 to 6.00 | pIC50 ([3]; NCI-H441, 144 h, Table 2): 5.00 to 6.00

Compound: C#Cc1c(F)ccc2cc(OC(=O)NC)cc(-c3ncc4c(N5CCCCCN5)nc(OC[C@@]56CCCN5C[C@H](F)C6)nc4c3F)c12 [Compound 19]
pIC50 [2, 6]: > 7.00 | pIC50 ([3]; 144 h, Table 2): 5.00 to 6.00

Compound: C#Cc1c(F)ccc2cc(OC(=O)C(C)C)cc(-c3ncc4c(N5CCCCCN5)nc(OC[C@@]56CCCN5C[C@H](F)C6)nc4c3F)c12 [Compound 23]
pIC50 [2, 6]: > 7.00 | pIC50 ([3]; NCI-H441, 144 h, Table 2): > 7.00

Compound: C#Cc1c(F)ccc2cc(O)cc(-c3ncc4c(N5CCCCCN5)nc(OCC56CCCN5CC(=C)C6)nc4c3F)c12 (stereo not shown) [Compound 24]
pIC50 [2, 6]: > 7.00 | pIC50 ([3]; NCI-H441, 144 h, Table 2): 6.00 to 7.00

Compound: C#Cc1c(F)ccc2cc(O)cc(-c3ncc4c(N5CCCCCN5)nc(OCC56CCCN5CCC6)nc4c3F)c12 [Compound 25]
pIC50 [4]: 6.00 to 7.00 | pIC50 [2, 6]: > 7.00

Compound: C#Cc1c(F)ccc2cc(O)cc(-c3ccc4c(N5CCCCCN5)nc(OC[C@@]56CCCN5C[C@H](F)C6)nc4c3)c12 [Compound 26]
pIC50 [4]: 5.00 to 6.00 | pIC50 [2, 6]: 6.00 to 7.00

Compound: CCc1c(F)ccc2cc(O)cc(-c3ccc4c(N5CCCCCN5)nc(OC[C@@]56CCCN5C[C@H](F)C6)nc4c3)c12 [Compound 27]
pIC50 [4]: 5.00 to 6.00 | pIC50 [2, 6]: 6.00 to 7.00

Compound: CCc1c(F)ccc2cc(O)cc(-c3ncc4c(N5CCCCCN5)nc(OCC5(CN(C)C)CC5)nc4c3F)c12 [Compound 28]
pIC50 [4]: 6.00 to 7.00 | pIC50 [2, 6]: > 7.00

Compound: C#Cc1c(F)ccc2cc(O)cc(-c3ncc4c(N5CCCCCN5)nc(OCC5(CN6CCOCC6)CC5)nc4c3F)c12 [Compound 29]
pIC50 [4]: > 7.00 | pIC50 [2, 6]: > 7.00

Compound: C#Cc1c(F)ccc2cc(N)cc(-c3ncc4c(N5CCCCCN5)nc(OC[C@@]56CCCN5C[C@H](F)C6)nc4c3F)c12 [Compound 30]
pIC50 [5]: > 7.00 | pIC50 [2, 6]: > 7.00

Compound: C#Cc1c(F)ccc2cc(O)cc(-c3nc(OC)c4c(N5CCCCCN5)nc(OC[C@@]56CCCN5C[C@H](F)C6)nc4c3F)c12 [Compound 33]
pIC50 [4]: 6.00 to 7.00 | pIC50 [2, 6]: > 7.00

Compound: Oc1cc(-c2ncc3c(N4CCCCCN4)nc(OC[C@@]45CCCN4C[C@H](F)C5)nc3c2F)c2c(Cl)cccc2c1 [Compound 35]
pIC50 [4]: 6.00 to 7.00 | pIC50 [2, 6]: > 7.00

Compound: C#Cc1cccc2cc(O)cc(-c3ncc4c(N5CCCCCN5)nc(OC[C@@]56CCCN5C[C@H](F)C6)nc4c3F)c12 [Compound 36]
pIC50 [4]: > 7.00 | pIC50 [2, 6]: > 7.00

Compound: C#Cc1c(F)ccc2cc(O)cc(-c3ncc4c(N5CCCCCN5)nc(OCC56CCCN5CC(F)(F)C6)nc4c3F)c12 (stereo not shown) [Compound 37]
pIC50 [5]: > 7.00 | pIC50 [2, 6]: > 7.00

Compound: C#Cc1c(F)ccc2cc(O)cc(-c3ncc4c(N5CCCC(O)CN5)nc(OC[C@@]56CCCN5C[C@H](F)C6)nc4c3F)c12 (stereo partly shown) [Compound 38]
pIC50 [5]: 5.00 to 6.00

Compound: C#Cc1c(F)ccc2cc(OC(=O)c3cc(F)c(F)c(F)c3)cc(-c3ncc4c(N5CCCCCN5)nc(OC[C@@]56CCCN5C[C@H](F)C6)nc4c3F)c12 [Compound 126]
pIC50 (GP2D cells): > 7.00 | pIC50 [2, 7]: > 7.00

Compound: C#Cc1c(F)ccc2cc(OC(=O)NCCCCCCCCCCCC)cc(-c3ncc4c(N5CCCCCN5)nc(OC[C@@]56CCCN5C[C@H](F)C6)nc4c3F)c12 [Compound 133]
pIC50 (GP2D cells; 144 h): > 7.00 | pIC50 [2, 8]: > 7.00

Compound: C#Cc1c(F)ccc2cc(OC(=O)N(C)C[C@@H]3CCCN3)cc(-c3ncc4c(N5CCCCCN5)nc(OC[C@@]56CCCN5C[C@H](F)C6)nc4c3F)c12 [Compound 151]
pIC50 (GP2D cells; 144 h): > 7.00 | pIC50 [2, 8]: > 7.00

Compound: C#Cc1c(F)ccc2cc(OC(=O)N(C)CCNC)cc(-c3ncc4c(N5CCCCCN5)nc(OC[C@@]56CCCN5C[C@H](F)C6)nc4c3F)c12 [Compound 153]
pIC50 (GP2D cells; 144 h): > 7.00 | pIC50 [2, 8]: > 7.00

Now from value to compound, other results behind:

pIC50 [5]: 5.00 to 6.00
Compound: C#Cc1c(F)ccc2cc(O)cc(-c3ncc4c(N5CC(O)CCCN5)nc(OC[C@@]56CCCN5C[C@H](F)C6)nc4c3F)c12 (stereo partly shown) [Compound 39]

pIC50 [5]: 5.00 to 6.00
Compound: C#Cc1c(F)ccc2cc(O)cc(-c3c(Cl)cc4c(N5CCCCCN5)nc(OC[C@@]56CCCN5C[C@H](F)C6)nc4c3F)c12 [Compound 41]

pIC50 [5]: > 7.00 | pIC50 [2, 6]: > 7.00
Compound: C#Cc1c(F)ccc2cc(O)cc(-c3c(F)cc4c(N5CCCCCN5)nc(OC[C@@]56CCCN5C[C@H](F)C6)nc4c3F)c12 [Compound 49]

pIC50 [5]: 6.00 to 7.00 | pIC50 [2, 6]: 6.00 to 7.00
Compound: C/C=C\c1c(Cl)cc2[nH]ncc2c1-c1c(F)cc2c(N3CCCCCN3)nc(OC[C@@]34CCCN3C[C@H](F)C4)nc2c1F [Compound 50]

pIC50 [2, 7]: 6.00 to 7.00
Compound: CCc1c(F)ccc2c(F)c(O)cc(-c3ncc4c(N5CCCCCN5)nc(OC[C@@]56CCCN5C[C@H](F)C6)nc4c3F)c12 [Compound 125]
pIC50 (GP2D cells): 6.00 to 7.00

pIC50 [2, 7]: 6.00 to 7.00
Compound: C#Cc1c(F)ccc2cc(N)cc(-c3c(F)cc4c(N5CCCCCN5)nc(OC[C@@]56CCCN5C[C@H](F)C6)nc4c3F)c12 [Compound 131]
pIC50 (GP2D cells): 6.00 to 7.00

pIC50 [2, 8]: 6.00 to 7.00
Compound: CCc1c(F)ccc2cc(N)cc(-c3c(Cl)cc4c(N5CCCCCN5)nc(OC[C@@]56CCCN5C[C@H](F)C6)nc4c3F)c12 [Compound 134]
pIC50 (GP2D cells; 144 h): 5.00 to 6.00

pIC50 [2, 8]: 6.00 to 7.00
Compound: C#Cc1c(F)ccc2cc(O)cc(-c3ncc4c(N5CCCCCN5)nc(OCC56COC(C5)C6)nc4c3F)c12 [Compound 137]
pIC50 (GP2D cells; 144 h): 6.00 to 7.00

pIC50 [2, 8]: 6.00 to 7.00
Compound: C#Cc1c(F)ccc2cc(OCOC(=O)N(C)C)cc(-c3ncc4c(N5CCCCCN5)nc(OC[C@@]56CCCN5C[C@H](F)C6)nc4c3F)c12 [Compound 145]
pIC50 (GP2D cells; 144 h): 6.00 to 7.00

pIC50 [2, 8]: > 7.00
Compound: C#Cc1c(F)ccc2cc(O)cc(-c3ncc4c(N5CCCCCN5)nc(OCC5(C)CN(C)CCC5C(F)F)nc4c3F)c12 (stereo not shown) [Compound 149]
pIC50 (GP2D cells; 144 h): > 7.00

pIC50 [2, 8]: > 7.00
Compound: C#Cc1c(F)ccc2cc(O)cc(-c3ncc4c(N5CCCCCN5)nc(OCC5(C)CN(C)CCC5CF)nc4c3F)c12 (stereo not shown) [Compound 150]
pIC50 (GP2D cells; 144 h): > 7.00

Reference: patent US20240425512A1, “NITROGEN-CONTAINING HETEROCYCLIC COMPOUND, PHARMACEUTICAL COMPOSITION THEREOF AND APPLICATION THEREOF” (280 Bio, Inc., priority 2023, published 2024)
